Legend:
Format in all cases: cell-based
[1] = system: human adipocyte cells; assay: Membrane integrity: LDH release from human adipocytes (LDH assay); conditions: for IC50: Homo sapiens, Adipocyte, read-out: IC50 48 hrs LDH; for Rel. max. LDH release [%] 48 hrs: Example 1, 48 hrs, relative to Triton-x 100 maximal LDH release
Procedure: (§1) HWP were obtained in passage two and differentiated in vitro to mature adipocytes. Briefly, cells were initially cultured in preadipocyte growth medium at 37° C. and 5% CO2 to 70-80% confluency. Then, cells were seeded at 40,000 cells/ml into 96-well flat bottom tissue culture plates and incubated overnight to allow attachment. Differentiation was initiated by changing the medium to preadipopcyte differentiation medium for an additional 72 hrs. After differentiation was induced, the medium was replaced by adipocyte nutrition medium that was refreshed every 2-3 days over a period of 14 days until termination of differentiation. Differentiation status was checked via nile red staining of control cells.
(§2) For the cytotoxicity assays in this study pre-adipocytes were seeded at 40,000 cells/ml into a 96-well microtiter flat bottom plate. The test items were prepared in separate plates starting with the double concentrated maximal test concentration followed by a 1:2 serial dilution (Chloroquine and Fluoxetine 1:3) and then added to the cells. The test items were tested at 6 replicates/concentration. Each plate included negative controls (media plus solvent, 6 replicates), a drug interference control (all concentrations, duplicates), a background control (14 replicates), a positive (=cytotoxic) control (6 replicates doxorubicin, 1 μM final) and a positive control for maximal LDH-release (2 replicates, 2% Triton-x 100 final).
(§3) Relative cell viability was determined after 48 hrs exposure based on metabolic activity (i.e. resazurin conversion). Using a Victor^3 1420 Multilabel Counter, the resazurin conversion to the fluorescent resorufin by metabolically active cells was recorded at 560Ex/590Em. Membrane integrity was measured after 6 hrs and 48 hrs and the enzymatic activity of released LDH in the cell supernatant after 30 min of incubation at 492 nmabsorption/690 nmreference by a spectrophotometer. The volume withdrawn from the cultures for the LDH-assay was not replaced to keep cells in a less disturbed environment. The assay was conducted in a multiplexed format.
For the dose-response relationship, absolute absorption (OD treated wells−background) was plotted against the test item concentrations representing LDH leakage from the cells. For a better estimation of the test items' potential influencing the membrane integrity, relative, maximal LDH release in percent (see Table 2) was also calculated according to the following formula: […]
(§4) The effects on cytotoxicity in human adipocyte cells of a further 9 compounds were tested. The experimental set-up was identical to the one in example 1.

[2] = system: human adipocyte cells; assay: Cytotoxicity assay: metabolic activity (resazurin conversion) of human adipocytes; conditions: Homo sapiens, Adipocyte
Procedure: as §1
The test items 1 to 8 were prepared according to Table 1 to yield respective stock solutions. Said stock solutions were further diluted in assay media to obtain the double concentrated working solutions, which were subsequently diluted 1:2 in the final assay. […] Deoxycholate Na was selected as “reference compound”.
as §2, §3
In order to derive meaningful IC50 values from the primary data, the entire biological window of activity ranging from 0% to 100% viability should be covered and the resolution has to be sufficient. To improve data quality, the serial dilution factor used in previous experiments was reduced to a 1:2 and 1:3 dilution. […] IC50 (half maximal inhibitory concentration, calculated via Sigma Plot 10) values were determined for each test substance 1 to 8.
as §4

[3] = system: Human white adipocytes; assay: Apoptosis/necrosis detection, Annexin V-FITC/PI flow cytometry; conditions: for apoptosis/necrosis induction in human adipocytes (in words): 5, 24, 48 hrs, concentrations as in Table 4
Excerpt: The apoptotic program is characterized by certain morphologic features. Loss of plasma membrane asymmetry is a well established indicator for apoptotic cells. In apoptotic cells, the membrane phospholipid phosphatidylserine (PS) is translocated from the inner to the outer leaflet of the plasma membrane, thereby exposing PS to the external environment. In general, this PS translocation is preceded by caspase activation. Annexin V labelled with FITC is a Ca^2+ dependent phospholipid-binding protein with high affinity for PS and binds to cells with externalized PS. Cells stained with Annexin V*FITC are therefore considered in an early apoptotic stage.
Staining with Annexin V-FITC is typically used in conjunction with a vital dye such as propidium iodide (PI) to allow discrimination between early apoptotic and necrotic cells. Necrotic dying cells are PI positive only. Cells that are viable are Annexin V and PI negative; cells that entered apoptosis are Annexin V positive and PI negative and cells that are in post apoptotic and/or necrotic phase are both Annexin V and PI positive.
Human white adipocytes that had been differentiated in vitro from pre-adipocytes as describe above were used. Measurements were performed after 5 hrs to catch early apoptotic/necrotic events and after 24 hrs and 48 hrs for later stages. Naringenin at 500 μM (reported to induce apoptosis in adipocytes) was used as positive control and media plus solvent was used as negative control. Each compound was tested in three different concentrations. […] Two more concentrations, one below and one above the IC50 were added.
Flow cytometry was performed with a dual laser FC500. After completion of the staining procedure, tubes were grouped into a FC500 carousel for semi-automated data acquisition. Cells were first acquired in “Setup” mode to tune the parameters FS, SS, FL1 and FL2. After completion of the setup, baseline compensation was switched on and cells were acquired. Cells were acquired without life-gate but using FS threshold to exclude debris. All cells were acquired using individually corrected settings.
After completion of data acquisition, analysis was done using the CXP software. If necessary, software-based post acquisition compensation was performed to fine-correct for fluorescence overlap not adjusted for during the acquisition phase. Quadrant markers were set based on the negative controls.

[4] = read-out: IC50 48 hrs Resazurin, Example 2, 48 hrs

In the case of COc1ccccc1OCCNCC(O)COc1cccc2[nH]c3ccccc3c12 (centres unmarked) [Carvedilol], the IC50 ([1]; Example 2, 48 hrs) is reported as about 22.2 µM and the IC50 [2, 4] is reported as 28.4 µM.
With CNCC[C@H](Oc1cccc2ccccc12)c1cccs1 [Duloxetine] the IC50 ([1]; 48 h) was about 31.9 µM and the IC50 ([2]; 48 h, read-out: IC50 48 hrs Resazurin) was 42.9 µM.
O=C1C[C@@H](c2ccc(O)cc2)Oc2cc(O)cc(O)c21 [Naringenin] was tested, and the “Early Apoptosis [A-V*/PI*]” value ([3]; 500 μM, 5 hrs) was 16, the “Necrosis/ Late Apoptosis [A-V*/PI*]” value ([3]; 500 μM, 5 hrs) was 0.8 and the “Normal [A-V*/PI]” value ([3]; 500 μM, 5 hrs) was 83.2. For the same compound, the “Early Apoptosis [A-V*/PI*]” value ([3]; 500 μM, 24 hrs) was 14.1, the “Necrosis/ Late Apoptosis [A-V*/PI*]” value ([3]; 500 μM, 24 hrs) was 4.1 and the “Normal [A-V*/PI]” value ([3]; 500 μM, 24 hrs) was 81.8. The “Early Apoptosis [A-V*/PI*]” value ([3]; 500 μM, 48 hrs) was 12.1, the “Necrosis/ Late Apoptosis [A-V*/PI*]” value ([3]; 500 μM, 48 hrs) was 5.7 and the “Normal [A-V*/PI]” value ([3]; 500 μM, 48 hrs) was 81.2. The “apoptosis/necrosis induction in human adipocytes (in words)” value [3] was “small but clear increase in apoptotic/necrotic adipocytes over time”.
Fc1ccc([C@@H]2CCNC[C@H]2COc2ccc3c(c2)OCO3)cc1 [Paroxetine] was tested, and the IC50 ([1]; Example 2, 48 hrs) was about 31.2 µM and the IC50 [2, 4] was 39.3 µM.
With OCCN1CCN(CCCN2c3ccccc3Sc3ccc(Cl)cc32)CC1 [Perphenazine] the IC50 ([1]; Example 2, 48 hrs) was about 20.3 µM and the IC50 [2, 4] was 25 µM.
CCN(CC)CCCC(C)Nc1ccnc2cc(Cl)ccc12 (centres unmarked) [Test substance 1, Chloroquine] was tested, and the “Rel. max. LDH release [%] 48 hrs” value [1] was 101.8% and the IC50 ([2]; 48 h, read-out: IC50 (metabolic activity after 48 hrs)) was 599 µM.
In the case of CN(C)CCCC1(c2ccc(F)cc2)OCc2cc(C#N)ccc21 (centres unmarked) [Test substance 2, Citalopram HBr], the “Rel. max. LDH release [%] 48 hrs” value [1] is reported as 100.7%, the IC50 ([2]; read-out: IC50 (metabolic activity after 48 hrs), Example 1, 48 hrs exposure, resazurin) is reported as 431 µM and the “Early Apoptosis [A-V*/PI*]” value ([3]; 250 μM, 5 hrs) is reported as 21.5. The “Necrosis/ Late Apoptosis [A-V*/PI*]” value ([3]; 250 μM, 5 hrs) was 0.6, the “Normal [A-V*/PI]” value ([3]; 250 μM, 5 hrs) was 77.9 and the “Early Apoptosis [A-V*/PI*]” value ([3]; 250 μM, 24 hrs) was 32.4. For the same compound, the “Necrosis/ Late Apoptosis [A-V*/PI*]” value ([3]; 250 μM, 24 hrs) was 2.2, the “Normal [A-V*/PI]” value ([3]; 250 μM, 24 hrs) was 65.4 and the “Early Apoptosis [A-V*/PI*]” value ([3]; 250 μM, 48 hrs) was 23.1. The “Necrosis/ Late Apoptosis [A-V*/PI*]” value ([3]; 250 μM, 48 hrs) was 3.3, the “Normal [A-V*/PI]” value ([3]; 250 μM, 48 hrs) was 79.6 and the “Early Apoptosis [A-V*/PI*]” value ([3]; 350 μM, 5 hrs) was 31.3. For the same compound, the “Necrosis/ Late Apoptosis [A-V*/PI*]” value ([3]; 350 μM, 5 hrs) was 1.5, the “Normal [A-V*/PI]” value ([3]; 350 μM, 5 hrs) was 67.2 and the “Early Apoptosis [A-V*/PI*]” value ([3]; 350 μM, 24 hrs) was 57.6. For the same compound, the “Necrosis/ Late Apoptosis [A-V*/PI*]” value ([3]; 350 μM, 24 hrs) was 4.7, the “Normal [A-V*/PI]” value ([3]; 350 μM, 24 hrs) was 37.7 and the “Early Apoptosis [A-V*/PI*]” value ([3]; 350 μM, 48 hrs) was 35.6. For the same compound, the “Necrosis/ Late Apoptosis [A-V*/PI*]” value ([3]; 350 μM, 48 hrs) was 10.7, the “Normal [A-V*/PI]” value ([3]; 350 μM, 48 hrs) was 53.7 and the “Early Apoptosis [A-V*/PI*]” value ([3]; 450 μM, 5 hrs) was 30.5. For the same compound, the “Necrosis/ Late Apoptosis [A-V*/PI*]” value ([3]; 450 μM, 5 hrs) was 1.1, the “Normal [A-V*/PI]” value ([3]; 450 μM, 5 hrs) was 68.4 and the “Early Apoptosis [A-V*/PI*]” value ([3]; 450 μM, 24 hrs) was 26. The “Necrosis/ Late Apoptosis [A-V*/PI*]” value ([3]; 450 μM, 24 hrs) was 23.9, the “Normal [A-V*/PI]” value ([3]; 450 μM, 24 hrs) was 50.1 and the “Early Apoptosis [A-V*/PI*]” value ([3]; 450 μM, 48 hrs) was 44.9. For the same compound, the “Necrosis/ Late Apoptosis [A-V*/PI*]” value ([3]; 450 μM, 48 hrs) was 26, the “Normal [A-V*/PI]” value ([3]; 450 μM, 48 hrs) was 29.1 and the “apoptosis/necrosis induction in human adipocytes (in words)” value [3] was “clear apoptosis after 5 hrs with virtually no necrosis”.
